The values below come from US8865734B2 (priority 2010, dated 2014).

Converted amounts (≈) assume the structure as drawn.

One assay relates to in vitro grown Mycobacteria (M. tuberculosis). Description: QUM: Quantification of in vitro grown Mycobacteria (in vitro growth fluorescence assay). The assay is classed as cell-based. The note with it: MIC, 80% bacterial growth inhibition; in vitro growth. The source says: (§1) A 120,000 small molecule compound library was screened using a validated phenotypic cell-based assay (WO2010003533A2). Active compounds from the primary screen were confirmed via dose response in the intracellular (QIM) assay and an in vitro (QUM) assay, wherein the abbreviation “QIM” stands for Quantification of Intracellular Mycobacteria and the abbreviation “QUM” stands for Quantification of in vitro grown Mycobacteria. […] The MIC is the minimum concentration of compound required to obtain 80% bacterial growth inhibition.
(§2) The imidazopyridine compounds (scaffolds Ia and Ib; see Table 1) underwent derivatization according to the methods outlined below (Schemes 1-13). Resulting derivatives were examined for inhibitory activity (MIC) using the assays described above (Example 1) and the results are summarized in Table 1.
Regarding “6-Chloro-N-(4-(4-(cyclopentyloxymethyl)piperidin-1-yl)benzyl)-2-ethylimidazo[1,2-a]pyridine-3-carboxamide [Compound 293]”, the “QUM (μM)” value was “+++ (+++ indicates <1 uM)”.

The same assay, now with this note: Mycobacterium tuberculosis; MIC, 80% bacterial growth inhibition; in vitro growth; read-out: QUM.
Regarding `CCc1nc2cc(Cl)ccn2c1C(=O)NCc1ccc(-c2ccc(C#N)cc2)cc1` [Compound 122, 7-Chloro-N-((4′-cyanobiphenyl-4-yl)methyl)-2-ethylimidazo[1,2-a]pyridine-3-carboxamide], the MIC is < 1 µM. Regarding `CCc1nc2cc(Cl)ccn2c1C(=O)NCc1ccc(N2CCC(COC(C)C)CC2)cc1` [Compound 292, 7-Chloro-2-ethyl-N-(4-(4-(isopropoxymethyl)piperidin-1-yl)benzyl)imidazo[1,2-a]pyridine-3-carboxamide], the MIC was < 1 µM. With `CCc1nc2ccccn2c1C(=O)NCc1ccc2c(ccn2C)c1` [Compound 56, 2-Ethyl-N-((1-methyl-1H-indol-5-yl)methyl)imidazo[1,2-a]pyridine-3-carboxamide], the MIC is < 1 µM. In the case of `CCc1nc2cc(Cl)ccn2c1C(=O)NCc1ccc(-c2ccccc2C#N)cc1` [Compound 126, 7-Chloro-N-((2′-cyanobiphenyl-4-yl)methyl)-2-ethylimidazo[1,2-a]pyridine-3-carboxamide], the MIC is < 1 µM. For `CCc1nc2ccccn2c1C(=O)NCc1ccccc1` [Compound 46, N-Benzyl-2-ethylimidazo[1,2-a]pyridine-3-carboxamide], the MIC lay within 1 to 20 µM (≈ 0.279 to 5.59 µg/mL). On the same count and under the same terms, for `CCc1nc2c(OC)cccn2c1C(=O)NCc1ccc(N2CCN(c3ccc(F)cc3)CC2)cc1` [Compound 115, 2-Ethyl-N-(4-(4-(4-fluorophenyl)piperazin-1-yl)benzyl)-8-methoxyimidazo[1,2-a]pyridine-3-carboxamide] the value was < 1 µM.

As for `CCc1nc2cc(Cl)ccn2c1C(=O)NCc1ccc(N2CCC(C=O)CC2)cc1` [Compound 352, 7-Chloro-2-ethyl-N-(4-(4-formylpiperidin-1-yl)benzyl)imidazo[1,2-a]pyridine-3-carboxamide], the MIC was < 1 µM. Same read-out and setting: for `CCc1nc2ccc(Cl)cn2c1C(=O)NCc1ccc(N2CCC(OCc3ccc(F)cc3)CC2)cc1` [Compound 347, 6-Chloro-2-ethyl-N-(4-(4-(4-fluorobenzyloxy)piperidin-1-yl)benzyl)imidazo[1,2-a]pyridine-3-carboxamide] the value was < 1 µM.

In the case of `CCc1nc2ccc(C)cn2c1C(=O)NCc1ccc(Oc2ccc(OC(F)(F)F)cc2)cc1` [Compound 255, 2-Ethyl-6-methyl-N-(4-(4-(trifluoromethoxy)phenoxy)benzyl)imidazo[1,2-a]pyridine-3-carboxamide], the MIC is < 1 µM. Take `CCc1nc2c(-c3ccncc3)cccn2c1C(=O)NCc1ccc(N2CCN(c3ccc(F)cc3)CC2)cc1` [Compound 312, 2-Ethyl-N-(4-(4-(4-fluorophenyl)piperazin-1-yl)benzyl)-8-(pyridin-4-yl)imidazo[1,2-a]pyridine-3-carboxamide]: the MIC was < 1 µM. Same read-out and setting: the result for `CCc1nc2ccccn2c1C(=O)NCc1ccc(N2CCC(c3ccc(F)cc3)CC2)cc1` [Compound 285, 2-Ethyl-N-(4-(4-(4-fluorophenyl)piperidin-1-yl)benzyl)imidazo[1,2-a]pyridine-3-carboxamide] reads < 1 µM; that for `CCOC(=O)C1CCN(c2ccc(CNC(=O)c3c(CC)nc4cc(Cl)ccn34)cc2)CC1` [Compound 301, Ethyl 1-(4-((7-chloro-2-ethylimidazo[1,2-a]pyridine-3-carboxamido)methyl)phenyl)piperidine-4-carboxylate], < 1 µM; that for `CCc1nc2cc(Cl)ccn2c1C(=O)OCc1ccc(Oc2ccc(F)cc2)cc1` [Compound 264], < 1 µM. Turning to `CCc1nc2c(OC)cccn2c1C(=O)NCc1ccc(N2CCOCC2)cc1` [Compound 318, 2-Ethyl-8-methoxy-N-(4-morpholinobenzyl)imidazo[1,2-a]pyridine-3-carboxamide], the MIC is < 1 µM. For the molecule `CCc1nc2cc(Cl)ccn2c1C(=O)NCc1ccc(-c2ccc(C=O)cc2)cc1` [Compound 252, 7-Chloro-2-ethyl-N-((4′-formylbiphenyl-4-yl)methyl)imidazo[1,2-a]pyridine-3-carboxamide], the MIC is < 1 µM. On to `CCc1nc2ccc(Cl)cn2c1C(=O)NCc1ccc(N2CCC(C(=O)N(C)C)CC2)cc1` [Compound 345, 6-Chloro-N-(4-(4-(dimethylcarbamoyl)piperidin-1-yl)benzyl)-2-ethylimidazo[1,2-a]pyridine-3-carboxamide], for which the MIC is < 1 µM. With `CCc1nc2ccc(OC)cn2c1C(=O)NCc1ccc(N2CCOCC2)cc1` [Compound 313], the MIC is < 1 µM. Consider `CCc1nc2cc(Cl)ccn2c1C(=O)NCc1ccc(N2CCC(OCc3ccc(F)cc3)CC2)cc1` [Compound 348, 7-Chloro-2-ethyl-N-(4-(4-(4-fluorobenzyloxy)piperidin-1-yl)benzyl)imidazo[1,2-a]pyridine-3-carboxamide], for which the MIC was in the range of 1 to 20 µM (≈ 0.521 to 10.4 µg/mL). On the same count and under the same terms, the result for `CCc1nc2cc(Cl)ccn2c1C(=O)NCc1ccc(N2CCC(COC(F)F)CC2)cc1` [Compound 183, 7-Chloro-N-(4-(4-((difluoromethoxy)methyl)piperidin-1-yl)benzyl)-2-ethylimidazo[1,2-a]pyridine-3-carboxamide] reads < 1 µM; that for `CCc1nc2cc(Cl)ccn2c1C(=O)NCc1ccc(N2CCOCC2)c(Cl)c1` [Compound 350, 7-Chloro-N-(3-chloro-4-morpholinobenzyl)-2-ethylimidazo[1,2-a]pyridine-3-carboxamide], < 1 µM. With `CCc1nc2cc(Cl)ccn2c1C(=O)NCc1ccc(C(=O)N2CCOCC2)cc1` [Compound 333, 7-Chloro-2-ethyl-N-(4-(morpholine-4-carbonyl)benzyl)imidazo[1,2-a]pyridine-3-carboxamide], the MIC is > 20 µM. For `CCc1nc2ccc(Cl)cn2c1C(=O)NCc1ccc(N2CCC(C(=O)O)CC2)cc1` [Compound 220, 1-(4-((6-Chloro-2-ethylimidazo[1,2-a]pyridine-3-carboxamido)methyl)phenyl)piperidine-4-carboxylic acid], the MIC is < 1 µM.

Regarding `CCc1nc2cc(Cl)ccn2c1C(=O)NCc1ccc(N2CC3CCCCC3C2)cc1` (centres unmarked) [Compound 224, N-(4-(1H-isoindol-2(3H,3aH,4H,5H,6H,7H,7aH)-yl)benzyl)-7-chloro-2-ethylimidazo[1,2-a]pyridine-3-carboxamide], the MIC is < 1 µM. Turning to `CCc1nc2c(F)cccn2c1C(=O)NCc1ccc(OC(F)(F)F)cc1` [Compound 251, 2-Ethyl-8-fluoro-N-(4-(trifluoromethoxy)benzyl)imidazo[1,2-a]pyridine-3-carboxamide], the MIC is < 1 µM.

In the case of `CCc1nc2c(Br)cccn2c1C(=O)NCc1ccc(N2CCN(c3ccc(F)cc3)CC2)cc1` [Compound 305, 8-Bromo-2-ethyl-N-(4-(4-(4-fluorophenyl)piperazin-1-yl)benzyl)imidazo[1,2-a]pyridine-3-carboxamide], the MIC was < 1 µM.

Regarding `CCc1nc2cc(Cl)ccn2c1C(=O)NCc1ccc(N2CCC(c3ccc(OC(F)(F)F)cc3)CC2)cc1` [Compound 290, 7-Chloro-2-ethyl-N-(4-(4-(4-(trifluoromethoxy)phenyl)piperidin-1-yl)benzyl)imidazo[1,2-a]pyridine-3-carboxamide], the MIC is < 1 µM. `CCOC(=O)C1CCN(c2ccc(CNC(=O)c3c(CC)nc4ccc(Cl)cn34)cc2)CC1` [Compound 300, Ethyl 1-(4-((6-chloro-2-ethylimidazo[1,2-a]pyridine-3-carboxamido)methyl)phenyl)piperidine-4-carboxylate]: the MIC is < 1 µM. As to `CCc1nc2ccc(Cl)cn2c1C(=O)NCc1ccc(N2CCC(C=O)CC2)cc1` [Compound 351, 6-Chloro-2-ethyl-N-(4-(4-formylpiperidin-1-yl)benzyl)imidazo[1,2-a]pyridine-3-carboxamide], the MIC is < 1 µM. As for `CCc1nc2cc(OC)ccn2c1C(=O)NCc1ccc(N2CCOCC2)cc1` [Compound 314, 2-Ethyl-7-methoxy-N-(4-morpholinobenzyl)imidazo[1,2-a]pyridine-3-carboxamide], the MIC is < 1 µM. For the molecule `CCc1nc2cc(Cl)ccn2c1C(=O)NCc1ccc(N2CCC(COC3CCCC3)CC2)cc1` [Compound 169, 7-Chloro-N-(4-(4-(cyclopentyloxymethyl)piperidin-1-yl)benzyl)-2-ethylimidazo[1,2-a]pyridine-3-carboxamide], the MIC was < 1 µM. With `CCc1nc2cc(Cl)ccn2c1C(=O)NCc1ccc(-n2cc3c(c2)CCCC3)cc1` [Compound 225, 7-Chloro-2-ethyl-N-(4-(4,5,6,7-tetrahydro-2H-isoindol-2-yl)benzyl)imidazo[1,2-a]pyridine-3-carboxamide], the MIC was < 1 µM. Still for that read-out and setting: the result for `CCc1nc2ccc(Cl)cn2c1C(=O)NCc1ccc(C(=O)NCc2ccc(C(=O)N3CCOCC3)cc2)cc1` [Compound 332, 6-Chloro-2-ethyl-N-(4-((4-(morpholine-4-carbonyl)benzyl)carbamoyl)benzyl) imidazo[1,2-a]pyridine-3-carboxamide] reads > 20 µM.

A further assay has as its system M. tuberculosis inside the host macrophage. The experiment in a line: QIM: Quantification of Intracellular Mycobacteria (intracellular growth assay, phenotypic cell-based). The note with it: Mycobacterium tuberculosis; MIC, 80% bacterial growth inhibition; intracellular growth; read-out: QIM.
From the text: Accordingly, a phenotypic cell-based assay, suitable for high throughput screening, which allows for the search of compounds that would prevent M. tuberculosis multiplication inside the host macrophage was utilized (WO2010003533A2), overcoming many of the numerous and burdensome steps involved in previous methodologies (Arain et al., 1996).
as §1, §2
Take `CCc1nc2cc(Cl)ccn2c1C(=O)NCc1ccc(-c2ccc(C#N)cc2)cc1` [Compound 122, 7-Chloro-N-((4′-cyanobiphenyl-4-yl)methyl)-2-ethylimidazo[1,2-a]pyridine-3-carboxamide]: the MIC was < 1 µM.

`CCc1nc2cc(Cl)ccn2c1C(=O)NCc1ccc(N2CCC(COC(C)C)CC2)cc1` [Compound 292, 7-Chloro-2-ethyl-N-(4-(4-(isopropoxymethyl)piperidin-1-yl)benzyl)imidazo[1,2-a]pyridine-3-carboxamide]: the MIC was < 1 µM. Still for that read-out and setting: the result for `CCc1nc2ccccn2c1C(=O)NCc1ccc2c(ccn2C)c1` [Compound 56, 2-Ethyl-N-((1-methyl-1H-indol-5-yl)methyl)imidazo[1,2-a]pyridine-3-carboxamide] reads < 1 µM; that for `CCc1nc2cc(Cl)ccn2c1C(=O)NCc1ccc(-c2ccccc2C#N)cc1` [Compound 126, 7-Chloro-N-((2′-cyanobiphenyl-4-yl)methyl)-2-ethylimidazo[1,2-a]pyridine-3-carboxamide], 1 to 20 µM (≈ 0.415 to 8.3 µg/mL); that for `CCc1nc2ccccn2c1C(=O)NCc1ccccc1` [Compound 46, N-Benzyl-2-ethylimidazo[1,2-a]pyridine-3-carboxamide], 1 to 20 µM (≈ 0.279 to 5.59 µg/mL).
